PubChem BioAssay (NCI)
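Grown in 96-well plates, cells were treated for 48 hours with each compound at five concentrations. Insufficient inhibition: endpoint recorded as highest concentration tested. TGI is the concentration that stops growth completely.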

Legend:
Assay in all cases: NCI-60 cell line screen, 48 h
786-0 renal = system: 786-0 renal
A549 NSCLC = system: A549 NSCLC
ACHN renal = system: ACHN renal
BT-549 breast = system: BT-549 breast
CAKI-1 renal = system: CAKI-1 renal
CCRF-CEM leukemia = system: CCRF-CEM leukemia
COLO 205 colon = system: COLO 205 colon
DU-145 prostate = system: DU-145 prostate
EKVX NSCLC = system: EKVX NSCLC
HCC-2998 colon = system: HCC-2998 colon
HCT-116 colon = system: HCT-116 colon
HCT-15 colon = system: HCT-15 colon
HL-60(TB) leukemia = system: HL-60(TB) leukemia
HOP-62 NSCLC = system: HOP-62 NSCLC
HOP-92 NSCLC = system: HOP-92 NSCLC
HS 578T breast = system: HS 578T breast
HT29 colon = system: HT29 colon
IGROV1 ovarian = system: IGROV1 ovarian
K-562 leukemia = system: K-562 leukemia
KM12 colon = system: KM12 colon
LOX IMVI melanoma = system: LOX IMVI melanoma
M14 melanoma = system: M14 melanoma
MALME-3M melanoma = system: MALME-3M melanoma
MCF7 breast = system: MCF7 breast
MDA-MB-231 breast = system: MDA-MB-231 breast
MDA-MB-435 = system: MDA-MB-435
MDA-N = system: MDA-N
MOLT-4 leukemia = system: MOLT-4 leukemia
NCI-H226 lung = system: NCI-H226 lung
NCI-H23 lung = system: NCI-H23 lung
NCI-H460 lung = system: NCI-H460 lung
NCI-H522 lung = system: NCI-H522 lung
NCI/ADR-RES ovarian = system: NCI/ADR-RES ovarian
OVCAR-3 ovarian = system: OVCAR-3 ovarian
OVCAR-4 ovarian = system: OVCAR-4 ovarian
OVCAR-5 ovarian = system: OVCAR-5 ovarian
OVCAR-8 ovarian = system: OVCAR-8 ovarian
PC-3 prostate = system: PC-3 prostate
RPMI-8226 leukemia = system: RPMI-8226 leukemia
RXF 393 renal = system: RXF 393 renal
SF-268 CNS = system: SF-268 CNS
SF-295 CNS = system: SF-295 CNS
SF-539 CNS = system: SF-539 CNS
SK-MEL-2 melanoma = system: SK-MEL-2 melanoma
SK-MEL-28 melanoma = system: SK-MEL-28 melanoma
SK-MEL-5 melanoma = system: SK-MEL-5 melanoma
SK-OV-3 ovarian = system: SK-OV-3 ovarian
SN12C renal = system: SN12C renal
SNB-19 CNS = system: SNB-19 CNS
SNB-75 CNS = system: SNB-75 CNS
SR leukemia = system: SR leukemia
SW-620 colon = system: SW-620 colon
T-47D breast = system: T-47D breast
TK-10 renal = system: TK-10 renal
U251 CNS = system: U251 CNS
UACC-257 melanoma = system: UACC-257 melanoma
UACC-62 melanoma = system: UACC-62 melanoma
UO-31 renal = system: UO-31 renal
A498 renal = system: A498 renal

`O=c1cc(N=Nc2ccc(Cl)cc2)[nH]c(=O)[nH]1` gave a TGI (786-0 renal) of 3.21 µM, a TGI (A549 NSCLC) of 18.8 µM and a TGI (ACHN renal) of 5.76 µM. The TGI (BT-549 breast) was 8.38 µM, the TGI (CAKI-1 renal) was 4.12 µM and the TGI (CCRF-CEM leukemia) was 4.94 µM. It also gave a TGI (COLO 205 colon) of 5.81 µM, a TGI (DU-145 prostate) of 22.6 µM and a TGI (EKVX NSCLC) of 8.5 µM. For the same molecule, the TGI (HCC-2998 colon) was 9.1 µM, the TGI (HCT-116 colon) was 3.87 µM and the TGI (HCT-15 colon) was 4.43 µM. For the same molecule, the TGI (HL-60(TB) leukemia) was 3.89 µM, the TGI (HOP-62 NSCLC) was 30.1 µM and the TGI (HOP-92 NSCLC) was 5.48 µM. It also gave a TGI (HS 578T breast) of 12.7 µM, a TGI (HT29 colon) of 5.44 µM and a TGI (IGROV1 ovarian) of 8.92 µM. It also gave a TGI (K-562 leukemia) of over 31.6 µM, a TGI (KM12 colon) of 10.6 µM and a TGI (LOX IMVI melanoma) of 3.45 µM. The TGI (M14 melanoma) was 9.19 µM, the TGI (MALME-3M melanoma) was 8.71 µM and the TGI (MCF7 breast) was 22.8 µM. It also gave a TGI (MDA-MB-231 breast) of 8.28 µM, a TGI (MDA-MB-435) of 14 µM and a TGI (MDA-N) of 11 µM. The TGI (MOLT-4 leukemia) was 7.5 µM, the TGI (NCI-H226 lung) was 20.4 µM and the TGI (NCI-H23 lung) was 14.1 µM. The TGI (NCI-H460 lung) was 12.2 µM, the TGI (NCI-H522 lung) was 3.63 µM and the TGI (NCI/ADR-RES ovarian) was 12.5 µM. It also gave a TGI (OVCAR-3 ovarian) of 9.53 µM, a TGI (OVCAR-4 ovarian) of 9.03 µM and a TGI (OVCAR-5 ovarian) of 32.2 µM. The TGI (OVCAR-8 ovarian) was 12 µM, the TGI (PC-3 prostate) was 11.7 µM and the TGI (RPMI-8226 leukemia) was 12 µM. It also gave a TGI (RXF 393 renal) of 10.2 µM, a TGI (SF-268 CNS) of 12.3 µM and a TGI (SF-295 CNS) of 22.3 µM. The TGI (SF-539 CNS) was 10.2 µM, the TGI (SK-MEL-2 melanoma) was 21.5 µM and the TGI (SK-MEL-28 melanoma) was 13.5 µM. It also gave a TGI (SK-MEL-5 melanoma) of 21.4 µM, a TGI (SK-OV-3 ovarian) of 22 µM and a TGI (SN12C renal) of 9.45 µM. The TGI (SNB-19 CNS) was 25.2 µM, the TGI (SNB-75 CNS) was 22.1 µM and the TGI (SR leukemia) was 2.67 µM. For the same molecule, the TGI (SW-620 colon) was 5.65 µM, the TGI (T-47D breast) was 11.9 µM and the TGI (TK-10 renal) was 13.5 µM. For the same molecule, the TGI (U251 CNS) was 12.6 µM, the TGI (UACC-257 melanoma) was 10.6 µM and the TGI (UACC-62 melanoma) was 7.11 µM. It also gave a TGI (UO-31 renal) of 10.6 µM.

`COc1ccc(-c2cc(=O)c3c(OC)c(OC)c(OC)c(OC)c3o2)c(OC)c1` showed a TGI (786-0 renal) of over 100 µM, a TGI (A498 renal) of 76.1 µM and a TGI (A549 NSCLC) of over 100 µM. It also gave a TGI (ACHN renal) of 84.8 µM, a TGI (BT-549 breast) of over 100 µM and a TGI (CAKI-1 renal) of 81.9 µM. It also gave a TGI (CCRF-CEM leukemia) of over 100 µM, a TGI (COLO 205 colon) of 34.3 µM and a TGI (DU-145 prostate) of over 100 µM. For the same molecule, the TGI (EKVX NSCLC) was over 100 µM, the TGI (HCC-2998 colon) was 46.6 µM and the TGI (HCT-116 colon) was 49.5 µM. It also gave a TGI (HCT-15 colon) of 86.1 µM, a TGI (HL-60(TB) leukemia) of over 100 µM and a TGI (HOP-62 NSCLC) of 70.6 µM. The TGI (HOP-92 NSCLC) was 55.3 µM, the TGI (HS 578T breast) was 49.4 µM and the TGI (HT29 colon) was 68.5 µM. For the same molecule, the TGI (IGROV1 ovarian) was over 100 µM, the TGI (K-562 leukemia) was over 100 µM and the TGI (LOX IMVI melanoma) was 34.8 µM. It also gave a TGI (M14 melanoma) of 46.7 µM, a TGI (MALME-3M melanoma) of over 100 µM and a TGI (MCF7 breast) of 44 µM. For the same molecule, the TGI (MDA-MB-231 breast) was over 100 µM, the TGI (MDA-MB-435) was 89.7 µM and the TGI (MDA-N) was over 100 µM. It also gave a TGI (MOLT-4 leukemia) of 86.1 µM, a TGI (NCI-H226 lung) of over 100 µM and a TGI (NCI-H23 lung) of 58.5 µM. For the same molecule, the TGI (NCI-H460 lung) was over 100 µM, the TGI (NCI-H522 lung) was 29.1 µM and the TGI (NCI/ADR-RES ovarian) was 67.3 µM. The TGI (OVCAR-3 ovarian) was 53.7 µM, the TGI (OVCAR-4 ovarian) was 94.4 µM and the TGI (OVCAR-5 ovarian) was over 100 µM. It also gave a TGI (OVCAR-8 ovarian) of over 100 µM, a TGI (RPMI-8226 leukemia) of over 100 µM and a TGI (RXF 393 renal) of 99.7 µM. For the same molecule, the TGI (SF-268 CNS) was over 100 µM, the TGI (SF-295 CNS) was 46 µM and the TGI (SF-539 CNS) was over 100 µM. For the same molecule, the TGI (SK-MEL-2 melanoma) was 39.2 µM, the TGI (SK-MEL-28 melanoma) was over 100 µM and the TGI (SK-MEL-5 melanoma) was 55.8 µM. It also gave a TGI (SK-OV-3 ovarian) of over 100 µM, a TGI (SN12C renal) of 62.6 µM and a TGI (SNB-19 CNS) of over 100 µM. For the same molecule, the TGI (SNB-75 CNS) was over 100 µM, the TGI (SR leukemia) was over 100 µM and the TGI (SW-620 colon) was over 100 µM. It also gave a TGI (T-47D breast) of 59.5 µM, a TGI (TK-10 renal) of over 100 µM and a TGI (U251 CNS) of over 100 µM. For the same molecule, the TGI (UACC-257 melanoma) was 49.5 µM, the TGI (UACC-62 melanoma) was 33 µM and the TGI (UO-31 renal) was 62.8 µM.

`Oc1ccc(O)c(CNc2ccccc2)c1` was tested, and the TGI (786-0 renal) was 26.1 µM, the TGI (A549 NSCLC) was over 100 µM and the TGI (ACHN renal) was 25.5 µM. The TGI (BT-549 breast) was 24.3 µM, the TGI (CAKI-1 renal) was 23.1 µM and the TGI (CCRF-CEM leukemia) was over 100 µM. It also gave a TGI (COLO 205 colon) of 37.4 µM, a TGI (DU-145 prostate) of 32.2 µM and a TGI (EKVX NSCLC) of 43.4 µM. For the same molecule, the TGI (HCC-2998 colon) was 67.7 µM, the TGI (HCT-116 colon) was 23.9 µM and the TGI (HCT-15 colon) was 42.2 µM. It also gave a TGI (HL-60(TB) leukemia) of 12.8 µM, a TGI (HOP-92 NSCLC) of 20.8 µM and a TGI (HS 578T breast) of over 100 µM. The TGI (HT29 colon) was over 100 µM, the TGI (IGROV1 ovarian) was 33.4 µM and the TGI (K-562 leukemia) was over 100 µM. The TGI (KM12 colon) was 42.1 µM, the TGI (LOX IMVI melanoma) was 28.1 µM and the TGI (M14 melanoma) was 33.7 µM. It also gave a TGI (MALME-3M melanoma) of 31.9 µM, a TGI (MCF7 breast) of 57.7 µM and a TGI (MDA-MB-231 breast) of 38.4 µM. The TGI (MDA-MB-435) was 29.4 µM, the TGI (MDA-N) was 16.6 µM and the TGI (MOLT-4 leukemia) was over 100 µM. For the same molecule, the TGI (NCI-H226 lung) was 78.4 µM, the TGI (NCI-H23 lung) was 32.4 µM and the TGI (NCI-H460 lung) was 47 µM. For the same molecule, the TGI (NCI-H522 lung) was 6.65 µM, the TGI (NCI/ADR-RES ovarian) was over 100 µM and the TGI (OVCAR-3 ovarian) was 19.3 µM. For the same molecule, the TGI (OVCAR-4 ovarian) was 28.6 µM, the TGI (OVCAR-5 ovarian) was 41.7 µM and the TGI (OVCAR-8 ovarian) was 36.4 µM. It also gave a TGI (PC-3 prostate) of 30 µM, a TGI (RPMI-8226 leukemia) of 3.14 µM and a TGI (RXF 393 renal) of 19.5 µM. The TGI (SF-268 CNS) was over 100 µM, the TGI (SF-295 CNS) was 29.7 µM and the TGI (SF-539 CNS) was 15.2 µM. It also gave a TGI (SK-MEL-2 melanoma) of 82.2 µM, a TGI (SK-MEL-28 melanoma) of over 100 µM and a TGI (SK-MEL-5 melanoma) of 33.9 µM. It also gave a TGI (SK-OV-3 ovarian) of 38.9 µM, a TGI (SN12C renal) of 29.2 µM and a TGI (SNB-19 CNS) of 45.1 µM. The TGI (SNB-75 CNS) was over 100 µM, the TGI (SR leukemia) was 75.2 µM and the TGI (SW-620 colon) was over 100 µM. It also gave a TGI (T-47D breast) of 37.9 µM, a TGI (TK-10 renal) of 39.1 µM and a TGI (U251 CNS) of 44.2 µM. For the same molecule, the TGI (UACC-257 melanoma) was 39.4 µM, the TGI (UACC-62 melanoma) was 30.6 µM and the TGI (UO-31 renal) was 27 µM.
